Measurements taken from patent US9539315B2, “Methods, agents and peptides for inhibiting matrix metalloproteinase-2 signaling” (New York University, priority 2011, dated 2017).
Entries after “also recorded” stand apart in the source; their conditions may differ.

B1: PEX: last third of MMP-2, amino acids 445-635 of SEQ ID NO: 1; recombinant (protein, listed as Homo sapiens)
chain: YGASPDIDLGTGPTPTLGPVTPEICKQDIVFDGIAQIRGEIFFFKDRFIWRTVTPRDKPMGPLLVATFWPELPEKIDAVYEAPQEEKAVFFAGNEYWIYSASTLERGYPKPLTSLGLPPDVQRVDAAFNWSKNKKTYIFAGDKFWRYNEVKKKMDPGFPKLIADAWNAIPDNLDAVVDLQGGGHSYFFKGA

What was measured:
NF-κB pathway = assay: p50 nuclear translocation / NF-κB activation in DCs (ELISA of cytosolic and nuclear fractions); format: cell-based, human; details: DCs exposed to MMP-2 (5 μm/ml) or zymosan (10 μm/ml); p50 by ELISA
Protocol: (§1) A) DCs were exposed to MMP-2 […] or zymosan […], a known activator of NF-κB that acts via TLR2, for the indicated time. Cytosolic and nuclear fractions were isolated and p50 contents were measured by ELISA. […] C) OX40L over-expression on DCs induced by MMP-2 is inhibited by an inhibitor of NEMO, the NEMO binding domain (NBD) peptide, but not by the corresponding negative control, a NBD mutant.
(§2) PBMCs were purified from healthy-(HD) or cord blood- (CB) donors and plated at 40×10^6 cells/10 mL/dish in complete IMDM with 5% PHS. Cells were allowed to adhere for 2 h at 37° C. Non-adherent cells were removed. The monocyte-enriched fraction was supplemented with 100 UI/mL rhGMCSF and 300 UI/mL rhIL-4 (R&D Systems) on days 0, 2 and 4. Immature DCs were harvested on day 5 and matured using poly(I:C) at 5 μg/mL/10^6 DCs (Amersham). Secretion of IL-12p70, TNFα, IL-1β, IL-6, IL-8 and IL-10 was assessed on both immature and mature DCs using the Human Inflammatory Cytokine Cytometric Bead Array (BD Pharmingen).
Activation of T cell clones (10,000 cells/100 μL/well), polyclonal T cell populations (100,000 cells/100 μL/well), and DCs (50,000 cells/100 μL/well) can be determined by ELISA. IFNγ (BioSource), TNFα (BioSource), IL-4 (BioSource), IFNβ (VeriKine; PBL interferon source) and MCP-3 (DuoSet; R&D Systems) contents in supernatants were measured according to the manufacturer's instructions. p50 was measured in cytosolic and nuclear fractions (fractions separated using the nuclear separation kit from Active motif) by ELISA (Active motif).

OX40L = OX40L expression on DCs (staining); format: cell-based, human; details: DCs exposed for 2 days, stained for OX40L
Protocol: as §1
(§3) A) DCs were exposed to various TLR agonists for 2 days before cells were stained for OX40L. […] B) TLR2-transfected and engineered HEK cells were incubated with MMP-2 (5 mg/ml) or various controls. All conditions were also tested in the presence of a blocking antibody for TLR2. TNFα was used to activate NF-κB in a TLR-independent manner. Twenty hours later, NF-κB activation was measured.
Antibody to OX40L (11C3.1) was from Biolegend. Blocking antibodies to TLR-2 and TLR-6 were from Invivogen. Antibodies to GATA-3, IL-4 (8D4-8), IL-5 (JES1-39D10), IL-13 (JES10-5A2), TNFα (MAb11), IFNγ (25723.11), perforin (δG9), GranzymeB (GB11), CD40 (5C3), CD80 (L307.4), CD83 (HB15e), CD86 (IT2.2), HLA-DR (TU36), fluorescein isothiocyanate-conjugated antibodies to CD45RA (HI100) and CD45RO (UCHL1), and antibody to CD4 (RPA-T4) were purchased from BD Biosciences Pharmingen. Alexa fluor 488-conjugated antibody to IL-17 (eBio64DEC17), phycoerythrine-conjugated antibody to T-bet (4B10).
as §2

human TLR-2 = molecular target: T1, human TLR-2 (Homo sapiens, UniProt O60603); assay: HEK-Blue-hTLR2 NF-κB SEAP reporter assay; format: cell-based; details: MMP-2 5 mg/ml; twenty hours; with/without TLR2 blocking antibody
T1 construct: host or cells: HEK293 (HEK-Blue-hTLR2 cells)
T1 sequence (O60603 21-784): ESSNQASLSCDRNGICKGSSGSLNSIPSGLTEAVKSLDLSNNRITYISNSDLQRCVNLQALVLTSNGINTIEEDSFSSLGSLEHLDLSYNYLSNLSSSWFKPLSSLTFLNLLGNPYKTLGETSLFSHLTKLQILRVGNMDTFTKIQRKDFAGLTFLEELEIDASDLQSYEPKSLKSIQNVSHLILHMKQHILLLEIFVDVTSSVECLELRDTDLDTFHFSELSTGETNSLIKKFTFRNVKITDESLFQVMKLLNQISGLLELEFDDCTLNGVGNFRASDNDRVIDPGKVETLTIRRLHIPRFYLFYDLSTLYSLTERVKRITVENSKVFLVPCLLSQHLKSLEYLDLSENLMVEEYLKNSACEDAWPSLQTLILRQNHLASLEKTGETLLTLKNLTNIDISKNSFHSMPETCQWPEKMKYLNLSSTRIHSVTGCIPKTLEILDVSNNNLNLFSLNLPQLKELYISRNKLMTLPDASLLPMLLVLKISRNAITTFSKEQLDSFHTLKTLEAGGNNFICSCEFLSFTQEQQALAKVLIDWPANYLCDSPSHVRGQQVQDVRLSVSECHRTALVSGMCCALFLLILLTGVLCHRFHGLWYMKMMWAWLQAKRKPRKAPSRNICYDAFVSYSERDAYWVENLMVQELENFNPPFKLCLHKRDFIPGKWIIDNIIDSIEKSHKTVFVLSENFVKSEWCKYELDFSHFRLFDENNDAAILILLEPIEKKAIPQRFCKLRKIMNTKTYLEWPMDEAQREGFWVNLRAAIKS
Protocol: as §3
TLR2-transfected and engineered HEK cells were incubated with MMP-2 (5 mg/ml), TLR2 agonists, recombinant PEX and 3 pools of overlapping 20-mers covering MMP-2. OLP1: mix of 22 overlapping peptides covering MMP-2 from amino-acid 1 to 220; OLP2: mix of 22 overlapping peptides covering MMP-2 from amino-acid 210 to 440; OLP3: mix of 22 overlapping peptides covering MMP-2 from amino-acid 450 to 660. Twenty hours later, NF-κB activation was measured. Neither PEX nor the peptides triggered NF-κB signaling.
TLR-2-transfected (stably) HEK-Blue™ Cells represent a very efficient high throughput reagent for screening due to an easy read-out. […] Levels of SEAP can be readily determined with QUANTI-Blue™, a detection medium that turns purple/blue in the presence of alkaline phosphatase. […] Inhibition of NF-κB activation by any agents/molecules can be assessed and confirmed in DCs (which endogenously express TLR2 or are engineered to express exogenous TLR2) in order to corroborate the initial screening results in a native or more natural context. […] TLR-2-expressing cells, such as those described herein, can be incubated with agents/molecules and molecular interactions assessed using methods, such as, e.g., co-immunoprecipitation of MMP-2 and TLR-2 from the cell lysates. […] Additional methods can be used to evaluate if MMP-2 and TLR-2 interact directly, including other affinity-based methods (e.g., affinity chromatography or panning), competitive inhibition assays, and various visualization techniques, such as fluorescence resonance energy transfer (FRET) and others which are known in the art. […]

Row | Molecule | p50 translocation in the nucleus (NF-κB pathway) | OX40L expression on DCs (OX40L) | NF-κB activation in TLR2-transfected HEK cells (human TLR-2)
1 | zymosan [reference compound] | induce p50 translocation in the nucleus after 30 min | induce OX40L on DCs | activate NF-κB in a TLR2-dependent manner
2 | B1 | – | – | did not trigger TLR-2 activation; also recorded: do not trigger TLR2
